US10576050B2, “Methods and compositions for treatment of cancer” (ONCONOVA THERAPEUTICS, INC., priority 2012, dated 2020)
Several values for one entry are separate records, joined by “and”; a condition that tells them apart may be missing. Equal values may be shown once.

How the values were obtained:
[1] = Phase 1 dose escalation study of oral ON 01910.Na in MDS patients refractory to ESA, lenalidomide and DNA methyltransferase inhibitors
Description: FIG. 1: Safety and efficacy of Rigosertib (ON 01910.Na) was determined in a dose escalation study in MDS patients refractory to ESA, lenalidomide and DNA Methyltransferase inhibitors. ESA was allowed as concomitant medication. The drug dose was escalated based on a defined escalation dose scheme (70 mg, 140 mg, 280 mg, 560 mg, and 700 mg). Three patients were treated with single escalating weekly doses of oral Rigosertib to determine the oral absorption of Rigosertib.
FIG. 3: The oral absorption and tolerability of Rigosertib administered as single weekly escalating doses in a fasting state were determined in 3 patients. All 3 patients received a 70 mg single oral dose and blood samples for pharmacokinetic analyses were obtained. In the absence of drug-related grade ≥2 toxicity, single dosing was escalated weekly in each patient to 140 mg (week 2), 280 mg (week 3), 560 mg (week 4) and 700 mg (week 5).
FIG. 4: This is a waterfall plot of 8 patients broken down by French American British classification (FAB) as either Refractory Anemia with Excess Blasts-1 (RAEB-1) or RAEB-2. […] The dosage level of each patient is also provided, as well as the patient history of treatment with Azacytidine. The bone marrow blast reduction is measures as a function of FAB classification, dosage and prior treatment with hypomethylating agents.
FIG. 10: Transfusion independence. […] Transfusion independence (TI) defined by absence of RBC transfusion for at least 8 consecutive weeks. Erythroid Response (ER) defined by reduction of at least 4 RBC transfusions/8 weeks compared to pretreatment transfusion number in the previous 8 weeks (RBC Tx for Hb<9.0 g/dL).
Each bar represents one patient. 12 individual MDS patients all categorized as low to intermediate-1 risk (International Prognostic Scoring System—IPSS) and transfusion dependent are shown. […] The decrease in transfusion requirement is plotted for each patient. The absolute differences in red blood cell (RBC) units versus pre-treatment needs are provided.
A total of 16 patients are plotted against their percentage reduction in need for red blood cell transfusions after treatment versus their pre-treatment needs.
Safety and efficacy of a novel oral formulation of ON 01910.Na were determined in a dose escalation study in MDS patients refractory to ESA, lenalidomide and DNA Methyltransferase inhibitors.
ESA was allowed as concomitant medication. The drug dose was escalated based on a defined escalation dose scheme (70, 140, 280, 560, and 700 mg). The drug was administered orally twice a day for 14 days of a 21 day cycle.
Rigosertib (ON 01910.Na) was used in five clinical trials for myelodysplastic syndrome (MDS) in both intravenous and oral formulations.

[2] = Phase I/II trials of intravenous Rigosertib in MDS patients: bone marrow blast response and overall survival
Description: According to one embodiment, Rigosertib was given as an intravenous infusion to MDS patients. In one trial, patients received 800 mg Rigosertib for three to five days every other week. According to another embodiment, patients received 650 to 1,700 mg Rigosertib for three to six days every other week. According to yet another embodiment, patients were initially treated with 800 mg to 1,500 mg Rigosertib for two days every week for three weeks followed by one week without treatment. The treatment schedule in these studies was later changed to 1,800 mg Rigosertib for three days every other week.
In this Example, bone marrow (BM) response and overall survival (OS) were analyzed in 60 patients (pts) with MDS, including 51 patients with refractory anemia and excess blasts (RAEB) and 9 patients with refractory cytopenia and multilineage dysplasia (RCMD) enrolled in 4 independent Phase 1/II clinical trials.
The patients were treated with Rigosertib administered as a continuous intravenous infusion (CIV) from 2 to 6 days weekly or every other week with BM response initially assessed per protocol by week 4 or 8 and every 8 weeks thereafter. Overall survival (OS) analyses were performed by the method of Kaplan-Meier.

[3] = Oral administration of Rigosertib 25 mg dose capsule in MDS patients, plasma level
[4] = system: human GM-CSF-dependent erythroblastic TF-1 cell line; assay: In vitro effect of ON 01910.Na on cell cycle readouts in TF-1 cells by SCNP; format: cell-based; details: 24 hours
Description: FIG. 2: In vitro effect of ON 01910.Na at clinically relevant concentrations on intracellular pathways in human GM-CSF-dependent erythroblastic TF-1 cell line using SCNP was evaluated in order to monitor transitional changes in the cell cycle, with a focus on the G2-M phase and to perform dose-dependent titrations of drug using these cell cycle readouts. The reagents chosen to measure cell cycle readouts were fluorochrome-conjugated antibodies that recognize cyclin B1, p-histone H3(S28) and p-Cdk1(Y15) and 4′6′-diamino-2-phenylindole (DAPI). […] TF-1 cell DNA content measured by DAPI verified this to be the case as increases in G2/M and sub-G1 (a measure of apoptotic cell death) were simultaneously observed. […] These effects were also observed at 48 hours, although with more cell death. This assay was used to measure the pharmacodynamics activity of the drug in MDS patient samples pre- and post-treatment with ON 01910.Na.

[5] = 8 RAEB-1/RAEB-2 patients, FIG. 4
[6] = individual patients achieving transfusion independence
[7] = 39 RAEB-1, 2, t-pts refractory or relapsing after azacitidine/decitabine
[8] = higher risk MDS patients who had previously failed Vidaza or Dacogen

COc1cc(OC)c(/C=C/S(=O)(=O)Cc2ccc(OC)c(NCC(=O)[O-])c2)c(OC)c1.[Na+] [Rigosertib, sodium (E)-2-{2-methoxy-5-[(2′,4′,6′-trimethoxystyrylsulfonyl)methyl]phenylamino}acetate]
patients with dose limiting toxicity (DLT) during first 3-week cycle ([1]; 700 mg dose level, dysuria and shortness of breath): One
patients responding (bone marrow blast reduction) [1, 5]: 6 of 8
patients with bone marrow complete response (BM CR) [1, 5]: 2
patients showing decrease in transfusion dependence based on RBC requirement (absolute differences) ([1]; 12 low to intermediate-1 risk transfusion dependent MDS patients, oral, 8 weeks, FIG. 13): 3 of 12
patients showing decrease in transfusion dependence based on decrease in percentage of RBC requirement ([1]; 16 patients, FIG. 14): 5 of 16
tolerability of oral formulation ([1]; 70-700 mg orally twice a day, 14 days of a 21 day cycle): well tolerated
# Units/56 ds Trt ([1]; RBC units per 56 days of treatment, individual patients): 8.0 and 10.5 (2×) and 3.2 and 3.1 and 0.3 (2×) and 4.4 and 11.6 (2×) and 7.1 and 2.0 and 4.3 and 2.9 and 4.9 and 6.4
% Reduction ([1]; RBC units vs pre-treatment, individual patients): 100% and 74% and −68% and −49% and −87% and −45% and −88% and 44% and −41% and −50% and 5% and −29% and −52% and −18% and 7% and −3%
# Units during Trt ([1]; RBC units, individual patients, one table row per patient): 2 (4×) and 17 and 10 and 16 (3×) and 13 and 4 (4×) and 21 and 8
safe and efficacious dose ([1]; bid, oral, 14 days of a 21 day cycle): 560 mg
TX response ([1]; individual Low-Int-1 risk transfusion dependent MDS patients, 560 or 700 mg bid, one table row per patient): No
Duration Tx indep [1, 6]: 16 and 47+ (2×) and 8
Onset Tx indep week [1, 6]: 10 and 7 and 6 and 3
Cmax as a function of dose ([1]; single weekly escalating oral doses 70-700 mg, fasting, 3 patients): increased linearly
Red RBC Units ([1]; units/56 days on treatment vs units in 56 days pre-treatment, individual patients): 4.0 and 4.5 and −6.8 and −2.9 and −3.7 and −3.6 and −5.7 and 3.6 and −4.9 and −2.0 and 0.5 and −1.7 and −3.1 and −1.1 and 0.4 and −0.4
patients still alive at 49 weeks ([2]; 15 patients refractory/relapsing after hypomethylating agents, 3-day infusions 1800 mg/day every other week): 47%
N patients with Progressive Disease [2, 7]: 3
N patients with Stable BM Response [2, 7]: 14
N patients with ≥50% Blast Decrease [2, 7]: 13
Median OS ([2]; 39 pts refractory/relapsing after azacitidine/decitabine, BM response Not Assessed): 11 weeks
Median OS ([2]; 39 pts refractory/relapsing after azacitidine/decitabine, Progressive Disease): 10 weeks
Median OS ([2]; 39 pts refractory/relapsing after azacitidine/decitabine, Stable BM Response): 40 weeks
Median OS ([2]; 39 pts refractory/relapsing after azacitidine/decitabine, ≥50% Blast Decrease): 44 weeks
N patients with Progressive Disease ([2]; 51 RAEB-1, 2, t-pts): 4
N patients with Stable BM Response ([2]; 51 RAEB-1, 2, t-pts): 21
N patients with ≥50% Blast Decrease ([2]; 51 RAEB-1, 2, t-pts): 16
Median OS ([2]; 51 RAEB-1, 2, t-pts, BM response Not Assessed): 11 weeks
Median OS ([2]; 51 RAEB-1, 2, t-pts, Progressive Disease): 13.5 weeks
Median OS ([2]; 51 RAEB-1, 2, t-pts, Stable BM Response): 36 weeks
Median OS ([2]; 51 RAEB-1, 2, t-pts, ≥50% Blast Decrease): 48 weeks
patients with hematological improvements ([2]; 60 MDS patients, CIV): Nine
tolerability of infusions ([2]; CIV infusions, MDS patients): well tolerated without evidence of bone marrow myelotoxicity
median survival ([2]; Intermediate-1 risk MDS patients, previously failed azacitidine or decitabine): about 77 weeks
median survival ([2]; Intermediate-2 risk MDS patients, previously failed azacitidine or decitabine): about 37 weeks
decrease in immature bone marrow cells ([2]; MDS patients who had previously failed azacitidine or decitabine): about 50%
decrease or stabilization in the number of immature bone marrow cells (blasts) ([2]; MDS patients, intravenous infusion, in general): ≥ 50%
Median OS ([2]; RAEB-1, 17 of 60 MDS patients, CIV): 43 weeks
Median OS ([2]; RAEB-2, 21 of 60 MDS patients, CIV): 37 weeks
Median OS ([2]; RAEB-T, 13 of 60 MDS patients, CIV): 20 weeks
Median OS ([2]; RCMD, 9 of 60 MDS patients, CIV): 98 weeks
decrease or stabilization in the number of immature bone marrow cells [2, 8]: ≥ 50%
median survival [2, 8]: about 36 weeks
half-life ([3]; human, plasma, po, 25 mg): ~600 min
plasma peak level ([3]; oral, 25 mg dose capsule, MDS patients): 2 to 4 µM
effect on G2/M cell cycle transition ([4]; DAPI DNA content): mitotic arrest with subsequent apoptosis
drug concentration of maximal effects on cell cycle signaling molecules ([4]; cyclin B1, p-histone H3(S28), p-Cdk1(Y15)): 0.37 µM
